Experiment [1] deals with Meloidogyne incognita. Nature of the experiment: Nematicidal activity against Meloidogyne incognita. The class given is functional. As to conditions: read-out: LD50 (the source's name).
For experiment [2], the system named is Meloidogyne incognita. Nature of the experiment: Nematicidal activity against Meloidogyne incognita up to 100 ug/mL. The class given is functional, organism-based.
Another experiment relates to HL-60. Nature of the experiment: Cytotoxicity against human HL60 cells up to 100 ug/mL. The class given is functional, cell-based.
For a further experiment, the system named is HeLa S3. Nature of the experiment: Cytotoxicity against human HeLaS3 cells up to 100 ug/mL. The class given is functional, cell-based.
The subject of a further experiment is L1210. Briefly: Antiproliferative activity against mouse L1210 cells at 50 ug/mL. In kind it is functional.
For another experiment, the system named is Lepidium sativum. Briefly: Phytotoxicity against Lepidium sativum assessed as inhibition of seedling germination at 100 ug/mL. The class given is functional. Also on record: scale not given: the % may be the effect or the level left.
The subject of a further experiment is Setaria italica. Nature of the experiment: Phytotoxicity against Setaria italica assessed as inhibition of seedling germination at 100 ug/mL. The class given is functional. Also on record: scale not given: the % may be the effect or the level left.

For two compounds, LC50 and Activity results are on record in ChEMBL document CHEMBL1158672, “Rubrobramide, a cytotoxic and phytotoxic metabolite from Cladobotyrum rubrobrunnescens” (1998).

Structures are written as SMILES. ≈ marks a conversion by molar mass, not a printed value. Calls of active or inactive are those of the source. The rule behind the calls is not given here.

On to `COc1c(-c2ccco2)coc(=O)c1C` [CLADOBOTRIN], for which the LC50 in the experiment on Meloidogyne incognita [1] was found to be 100 µg/mL (≈ 485 µM).
With `CC(C)C[C@]12NC(=O)[C@@]3(O)C(=O)C[C@](C)(O[C@H]31)O2` [RUBROBRAMIDE], the outcome in the experiment on Meloidogyne incognita [2], with HL-60 and in the experiment on HeLa S3 was inactive. Besides, the Activity in the experiment on L1210, in the experiment on Lepidium sativum and in the experiment on Setaria italica was 50% throughout.
